Test results taken from patent US10000771B2, “Nuclear targeting sequences” (Yeda Research and Development Co. Ltd., priority 2007, dated 2018).
Ends that are not written are not given here.

What was measured:
importin-7 = target: T1, importin-7 (Homo sapiens, UniProt O95373); experiment: Coimmunoprecipitation with importin-7; assay type: binding; conditions: HeLa cells, coimmunoprecipitation, without EGF stimulation
T1 construct: endogenous in cells; host or cells: HeLa
Description: FIGS. 19A-19C are autoradiographs illustrating that phospho-SPS interacts with importin-7 and releases Nup153c binding without involvment of importin-β. […]. Interaction of ERK2 with Importin-7 is enhanced by EGF stimulation and EPE mutation. HeLa cells overexpressing WT-ERK (WT), ERK-APA (APA), ERK-EPE (EPE) or GFP were serum starved and treated with EGF (50 ng/ml, 10 min). The extracts of the treated cells were then subjected to coimmunoprecipitation using A/G beads pre-conjugated with anti GFP Ab and mild washes. The coimmunoprecipitated importin-7 (first panel) and importin-β (third panel), as well as their loading amounts (panels 2 and 4 respectively) were determined by WB using anti importin-7 (αImp7) and importin-β (αImpβ) Abs. The equal amount of immunoprecipitated ERKs was determined with anti GFP (αGFP; IP) Ab. FIG. 19B. Interaction of 2GFP-SPS and its mutants with importin-7. HeLa cells overexpressing 2GFP, 2GFP-SPS, 2GFP-APA and 2GFP-EPE constructs were subjected to coimmunoprecipitation as described in FIG. 19A (without EGF stimulation). FIG. 19C. Interaction of NUP153 with WTERK2 and its APA and EPE mutants. NUP153c is elevated in APA-ERK2, but reduced in EPE-ERK2. Immunoprecipitated and stringently washed WT-ERK2 (WT), APA-ERK2 (APA) or ERK2 from […] cells pre-treated with or without TPA (250 nM, 15 min) were incubated with 0.5 μg recombinant His-Nup153c. This was followed by mild washing, and the beads were then subjected to Western blot analysis using anti His (αHis) and anti αGFP Abs.
Immunoprecipitation. Cellular extracts of stimulated transfected cells, were incubated with anti-GFP antibody preconugated to A/G beads (Santa Cruz; (2 hr, 4° C.). Subsequently, the beads were washed twice with HNTG buffer and once with 0.5 M LiCl. The immunoprecipitates were subjected either to Western blotting as described above or to an in vitro phosphatase assay as described under Results.

endogenous ERKs = experiment: Effect of 2GFP chimeras on nuclear translocation of endogenous ERKs; assay type: cell-based; conditions: CHO cells overexpressing the chimera, TPA 250 nM, 15 min
Description: FIGS. 10A-10X illustrate the effects of the 2GFP chimeras on the nuclear translocation of endogenous ERKs. CHO cells overexpressing 2GFP, 2GFP-SPS, 2GFP-APA and 2GFP-EPE were serum starved and treated with or without TPA (250 nM, 15 min). Subsequently, the cells were fixed and stain with anti-ERK2 (C-14) Ab and with DAPI.
(§1) Immunofluorescence Microscopy. Cells were fixed (30 min in 3% paraformaldehyde in PBS or 10 min with ice-cold methanol), followed by 5-min permeabilization with 0.2% Triton X-100 in PBS (23° C.). The fixed cells were sequentially incubated with the appropriate Abs (45 min) followed by rhodamine-conjugated secondary Abs (45 min) and DAPI. Slides were visualized using a fluorescence microscope (Nikon, Japan) at 400× magnifications.

COS7 cells = experiment: Subcellular fractionation of 2GFP chimeras; assay type: cell-based
Description: FIG. 9A is an autoradiograph illustrating the subcellular fractionation of transfected SPS, APA, and EPE peptides fused to a 2GFP in COS7 cells. Western blot analysis of aliquots of the fractions were stained with anti GFP Ab to detect the different chimaras, and with anti tubulin and anti c-Jun Abs as markers for the cytoplasmic and nuclear fractions respectively.
Cellular Fractionation: Transfected COS7 cells were starved (0.1% FBS) for 16 h, after which they were washed with ice-cold PBS, suspended in ice-cold buffer H, and centrifuged (12,000×g, 5 min). Then, the nuclear and cytosolic fractions were isolated as described [H. Rubinfeld, T. Hanoch, R. Seger, J. Biol. Chem. 274, 30349 (1999)]. Briefly, the pellets were suspended in 0.1% NP-40 followed by centrifugation (12,000×g, 5 min). The supernatant, containing the cytosolic fraction, was boiled in sample buffer. The pellet was suspended in extraction buffer (420 mM Nacl, 50 mM β-glycerophosphate, 0.5 mM Na3VO4, 1.5 mM MgCl2, 0.2 mM EDTA, 1 mM DTT, 25% glycerol), incubate on ice for 10 min, sonicated (50 W, 2×7 sec), and centrifuged (12,000×g, 5 min). The supernatant, containing the nuclear fraction, was subjected to Western blot.

CHO cells [1] = experiment: Fluorescence microscopy of 2GFP chimeras (subcellular localization); assay type: cell-based; conditions: 24 hr post transfection, serum-starved
Description: FIGS. 8A-8H are photomicrographs illustrating that SPS, APA, and EPE peptides fused to a 2GFP chimera modify its subcellular localization. CHO cells were grown on cover slips and transfected with 19 amino acid from the kinase insert domain of ERK2 including the SPS region (GFP-SPS) fused to a 2GFP chimera and with the same chimeras with substitution of the Ser to Ala (GFP-APA) or substitution to Glu (GFP-EPE). Twenty-four hr later, the cells were serum-starved for 16 hr, fixed, stained with DAPI and visualized by a fluorescence microscope.
as §1
To validate the general importance of the SPS domain, a 19 amino acid sequence surroundings the SPS or the APA and EPE mutants was fused to a dimer of GFP proteins (2GFP). Cellular distribution of the chimeras was detected in CHO cells 24 hr post transfection of the GFP constructs.

SPS domain = experiment: SPS phosphorylation detected by anti pSPS Ab Western blot; assay type: cell-based; conditions: cells pretreated (15 min) prior to EGF 50 ng/ml stimulation
Description: FIGS. 4A-4I are autoradiographs characterizing SPS phosphorylation using an Ab to the phosphorylated SPS domain. FIG. 4A illustrates an elevation of pSPS detection upon stimulation. COS cells were transfected with WT-GFP-ERK2. Twenty-four hr after transfection, the cells were serum-starved for 16 hr and subsequently treated with the general stimulator VOOH (V, 100 μM Na3VO4 and 200 μM H2O2, 15 min), TPA (T, 250 nM, 15 min), EGF (E, 50 ng/ml for 15 min), or left untreated (NT). The GFP-ERK2 was immunoprecipitated with anti GFP Ab, extensively washed, and the IP was then subjected to Western blotting with anti phospho SPS-ERK (αphoSPS-ERK) and anti general ERK (αgen-ERK) Abs. FIG. 4B is a time course of SPS phosphorylation. COS7 cells overexpressing WT-GFP-ERK2 were serum starved followed by EGF stimulation for the indicated time points. The lysates were then subjected to Western blot analysis as in FIG. 4A. FIGS. 4C-D. GFP-ERK2 was immunoprecipitated from VOOH stimulated (Act) or non-stimulated (NT), transfected COS7 cells as above. The immunoprecipitated protein was then incubated with shrimp's alkaline phosphates (SAP, 15 units, 30 min, 30° C. in the manufacturer digestion buffer), and subjected to Western blot analysis with anti phosphoSPS-ERK (αpSPS; FIG. 4C), anti phosphoTEY-ERK (αpTEY; FIG. 4D), and anti general-ERK Ab (αgen-ERK; FIGS. 4C, D). FIG. 4E. Elevation of anti pSPS Ab immunoreactivity upon stimulation of endogenous ERKs. Following serum starvation COS7 cells were treated with EGF (50 ng/ml) or VOOH (V, 100 μM Na3VO4 and 200 μM H2O2) for the indicated times. SPS phosphorylation was detected using the anti pSPS Abs, and this was compared to the amount of genral ERKs detected by αgERK. FIG. 4F. Specificity of the anti pSPS Ab. COS7 cells overexpressing either GFP-ERK2 or 244-6A mutant were serum starved for 16 hr, and then treated with EGF (50 ng/ml) for 15 min following WB analysis using αpSPS and αgERK Abs. FIG. 4G. TEY phosphorylation is not required for SPS phosphorylation. COS7 cells overexpressing WT-ERK2 or TEY-AAA were treated as described in D. FIG. 4H. COS7 cells were treated with or without UO126 prior (15 min) to EGF (50 ng/ml) stimulation for the indicated times. SPS-phosphorylation was detected using αpSPS and αgERK Abs. FIG. 4I. Phosphorylation of SPS is mediated by ERK autophosphorylation. […] The phosphorylation (^32P-ERK2) of ERK and its mutants was detected by autoradiography. […]
FIG. 9B is an autoradiograph illustrating that stimulation elevates pSPS phosphorylation of 2GFP-SPS construct. […] The total amount of immunoprecipitated 2GFP-SPS was detected with αGFP Ab. […]

CHO cells [2] = experiment: Microscopy of MEK1-GFP constructs (subcellular localization); assay type: cell-based
Description: FIGS. 14A-14R are photomicrographs illustrating that the NTS motif regulates MEK1 shuttling into the nucleus. CHO cells overexpressing WT-GFP-MEK1 (WT), AAA-GFP-MEK1 (AAA-MEK) and EPE-GFP-MEK1 (EPE-MEK) were starved for 16 hr and treated with LMB (5 ng/ml, 1 hr; LMB), LMB (5 ng/ml, 1 hr)+TPA (250 nM, 15 min; LMB+TPA) or left un treated (NT). Subsequently the cells were fixed, stained with DAPI and visualized by a fluorescent microscope.
as §1
Other proteins that translocate into the nucleus upon stimulation are the MEKs [H. Jaaro, H. Rubinfeld, T. Hanoch, R. Seger, Proc. Natl. Acad. Sci. USA 94, 3742 (1997)]. […] This TPT sequence was also shown to be phosphorylated upon cellular stimulation [S. Matsuda, Y. Gotoh, E. Nishida, J Biol Chem 268, 3277 (Feb. 15, 1993)], and to be involved in protein-protein interaction that can determine subcellular localization [A. Nantel, K. Mohammad-Ali, J. Sherk, B. I. Posner, D. Y. Thomas, J Biol Chem 273, 10475 (Apr. 24, 1998). […]

T1 sequence (O95373 whole entry): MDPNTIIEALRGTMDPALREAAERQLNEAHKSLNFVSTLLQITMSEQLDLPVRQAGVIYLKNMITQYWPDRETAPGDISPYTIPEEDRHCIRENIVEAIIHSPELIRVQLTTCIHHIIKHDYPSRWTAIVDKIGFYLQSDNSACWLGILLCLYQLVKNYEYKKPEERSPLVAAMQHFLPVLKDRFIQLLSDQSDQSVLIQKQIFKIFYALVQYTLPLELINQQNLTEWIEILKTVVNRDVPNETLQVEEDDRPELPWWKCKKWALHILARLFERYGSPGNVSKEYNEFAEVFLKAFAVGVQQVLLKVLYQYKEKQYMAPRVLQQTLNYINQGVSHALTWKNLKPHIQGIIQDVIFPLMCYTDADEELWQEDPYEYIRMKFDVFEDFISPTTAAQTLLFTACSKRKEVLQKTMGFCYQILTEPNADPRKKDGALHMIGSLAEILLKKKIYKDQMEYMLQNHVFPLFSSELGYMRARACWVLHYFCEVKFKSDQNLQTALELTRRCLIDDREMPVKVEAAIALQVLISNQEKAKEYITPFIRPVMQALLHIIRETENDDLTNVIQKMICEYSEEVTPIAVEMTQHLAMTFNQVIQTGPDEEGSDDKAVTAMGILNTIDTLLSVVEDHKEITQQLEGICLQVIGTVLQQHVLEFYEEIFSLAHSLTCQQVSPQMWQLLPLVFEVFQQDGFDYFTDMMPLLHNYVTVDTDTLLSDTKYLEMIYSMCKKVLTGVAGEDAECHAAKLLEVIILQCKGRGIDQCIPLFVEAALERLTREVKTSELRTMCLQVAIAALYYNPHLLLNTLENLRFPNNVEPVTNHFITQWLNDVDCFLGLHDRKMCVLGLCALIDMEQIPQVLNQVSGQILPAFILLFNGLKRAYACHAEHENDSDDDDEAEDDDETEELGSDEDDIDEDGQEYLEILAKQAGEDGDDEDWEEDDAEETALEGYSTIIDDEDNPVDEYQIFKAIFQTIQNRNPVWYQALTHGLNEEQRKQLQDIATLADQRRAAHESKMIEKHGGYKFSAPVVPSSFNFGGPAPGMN

| interaction of 2GFP constructs with importin-7 (importin-7) | Molecule | inhibition of TPA-induced translocation of endogenous ERKs (endogenous ERKs) | localized in the nucleus (COS7 cells) [%] | cellular distribution (CHO cells [1]) | anti pSPS Ab reaction with GFP-ERK2 after inhibitor pretreatment (SPS domain) | nuclear accumulation after TPA stimulation (CHO cells [2]; LMB 5 ng/ml + TPA 250 nM, 15 min) | nuclear translocation after leptomycin B (CHO cells [2]; LMB 5 ng/ml, 1 hr) |
| --- | --- | --- | --- | --- | --- | --- | --- |
| reduced this interaction | 2GFP-APA: 2GFP-WT with the Ser residues in the SPS domain mutated to Ala (LDQLNHILGILGAPAQEDL; also: fused to 2GFP (large carrier)) | more so | 3 | mainly in the cytoplasm and perinuclear region | – | – | – |
| elevated it | 2GFP-EPE: 2GFP-WT with the Ser residues in the SPS domain mutated to Glu (LDQLNHILGILGEPEQEDL; also: fused to 2GFP (large carrier)) | – | 90 | mainly in the nucleus | – | – | – |
| – | N#CC(=C(/N)Sc1ccccc1N)/C(C#N)=C(\N)Sc1ccccc1N [U0126, reference compound] | – | – | – | did not react | – | – |
| – | EPE-MEK1: GFP-MEK1 with residues 386 and 388 replaced with Glu | – | – | – | – | localized in the nucleus even without stimulation | increased |
